Data as given in US20230346784A1 (priority 2020, published 2023).
Values after ≈ are worked out from the molar mass of the structure shown. “Also recorded” adds a separate entry of the source.

Tests used:
[1] = tested on: TF1PIGAnull cells; assay type: cell-based, human
[2] = tested on: C5b-9 deposition on TF1PIGAnull cells; assay type: cell-based, human
[3] = tested on: C3c deposition on TF1PIGAnull cells; assay type: cell-based, human
[4] = tested on: APH; test: APH inhibition / IC50 threshold used with simulated concentrations (FIG. 11); parameters: species or system human; conditions: dotted line in FIG. 11, serum ALXN2040 concentration
[5] = tested on: SARS-CoV-2 spike proteins binding to TF1PIGAnull cells; test: Flow cytometry of coronavirus protein binding to TF1PIGAnull cells (heparan sulfate blockade, sialidase treatment); parameters: species or system human; conditions: sulfate sodium salt; for binding of S1 subunit to TF1PIGAnull cells: 5 μg/mL His-tagged S1 co-incubated with 2 mg/mL heparan sulfate solution; for binding of S2 subunit to TF1PIGAnull cells: 5 μg/mL His-tagged S2 co-incubated with 2 mg/mL heparan sulfate solution

CC(=O)c1nn(CC(=O)N2[C@H]3C[C@]4(C[C@@H]24)Cn2cc(nn2)COCc2ccc(Br)nc2NC3=O)c2ccc(-c3cnc(C)nc3)cc12 [Compound 2]
cell killing in the mHam assay induced by S1 and S2 [1]: inhibited; also recorded: prevented cell death
C5b-9 deposition induced by S1 and S2 [2]: inhibit
S1-induced C5b-9 deposition [2]: blocking; also recorded: completely blocked
S2-induced C5b-9 deposition [2]: blocking
C3c deposition induced by S1 and S2 [3]: more potent in blocking C3c deposition; also recorded: inhibit
S1-induced C3c deposition [3]: blocking; also recorded: completely blocked
S2-induced C3c deposition [3]: blocking

CC(=O)c1nn(CC(=O)N2C[C@H](F)C[C@H]2C(=O)Nc2cccc(Br)n2)c2ccc(-c3cnc(C)nc3)cc12 [Compound 1, danicopan]
IC50 value [4]: 0.235 µg/mL (≈ 0.405 µM)

Heparan sulfate sodium salt
binding of S1 subunit to TF1PIGAnull cells ([5]; listed as HS): significantly blocked
binding of S1 subunit to TF1PIGAnull cells [5]: completely blocked
binding of S2 subunit to TF1PIGAnull cells ([5]; listed as HS): significantly blocked
binding of S2 subunit to TF1PIGAnull cells [5]: completely blocked
